Source: patent US20240158446A1, “CYCLIC COMPOUND HAVING SELECTIVE INHIBITORY ACTION ON KRAS OVER HRAS AND NRAS” (CHUGAI SEIYAKU KABUSHIKI KAISHA, priority 2021, published 2024)
Read-outs that look alike come from different tables or passages of the source. *1 amine or outer side, *2 acyl side, *3 side chain or, on linkers, in order; H or OH if unused. Where a SMILES comes first, the peptide text is derived from it. Bridges are numbered along the chain shown (N, C = ends). [ ]: non-standard residue; d: D form. The star is where a group is joined. hPhe(3,5-F2-4-CF3) = N[C@@H](CCc1cc(F)c(C(F)(F)F)c(F)c1)C(=O)O; hPhe(3-Cl-4-CF3) = N[C@@H](CCc1ccc(C(F)(F)F)c(Cl)c1)C(=O)O; NPrPhe(4-CF3) = CCCN[C@@H](Cc1ccc(C(F)(F)F)cc1)C(=O)O; X18 = Cc1ccc(C[C@@H](C(=O)[*:2])N(CC(C)C)[*:1])cc1; NMeAbu(4,4,4-F3) = CN[C@@H](CC(F)(F)F)C(=O)O; NMeGly(cPent) = CN[C@H](C(=O)O)C1CCCC1; αMeCha = C[C@](N)(CC1CCCCC1)C(=O)O; NMeF = CN[C@@H](Cc1ccccc1)C(=O)O; NMeD = CN[C@@H](CC(=O)O)C(=O)O; NMeL = CN[C@@H](CC(C)C)C(=O)O; Pip = O=C(O)[C@@H]1CCCCN1; Morpholide = C1CN(*)CCO1; NMeA = CN[C@@H](C)C(=O)O; Ac5c = NC1(C(=O)O)CCCC1; Aze = O=C(O)[C@@H]1CCN1; NEtG = CCNCC(=O)O; Sar = CNCC(=O)O

Legend:
[1] = target: GDP-bound HRAS wild-type protein (Homo sapiens, UniProt P01112); assay: Binding to HRAS by surface plasmon resonance (SPR), Single Cycle Kinetics; details: SPR, GDP-bound HRAS wild-type protein vs GDP-bound KRAS wild-type protein
Sequence of GDP-bound HRAS wild-type protein (P01112 whole entry): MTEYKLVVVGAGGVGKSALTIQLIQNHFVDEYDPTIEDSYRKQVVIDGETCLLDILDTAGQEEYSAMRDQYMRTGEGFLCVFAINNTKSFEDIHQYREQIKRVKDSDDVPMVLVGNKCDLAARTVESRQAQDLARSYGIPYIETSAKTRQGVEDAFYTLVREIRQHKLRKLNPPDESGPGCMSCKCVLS

[2] = target: GDP-bound NRAS wild-type protein (Homo sapiens, UniProt P01111); assay: Binding to NRAS by surface plasmon resonance (SPR), Single Cycle Kinetics; details: SPR, GDP-bound NRAS wild-type protein vs GDP-bound KRAS wild-type protein
Sequence of GDP-bound NRAS wild-type protein (P01111 whole entry): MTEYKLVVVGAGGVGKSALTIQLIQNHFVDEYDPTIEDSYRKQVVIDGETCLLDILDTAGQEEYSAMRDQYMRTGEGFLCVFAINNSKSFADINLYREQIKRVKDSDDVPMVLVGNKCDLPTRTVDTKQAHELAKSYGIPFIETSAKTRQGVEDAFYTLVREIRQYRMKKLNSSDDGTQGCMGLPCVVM

[3] = target: GDP-bound KRAS wild-type protein (Homo sapiens, UniProt P01116); assay: Binding to KRAS by surface plasmon resonance (SPR), Single Cycle Kinetics; details: GDP-bound KRAS wild-type protein, read-out: KRAS KD
Sequence of GDP-bound KRAS wild-type protein (P01116 whole entry): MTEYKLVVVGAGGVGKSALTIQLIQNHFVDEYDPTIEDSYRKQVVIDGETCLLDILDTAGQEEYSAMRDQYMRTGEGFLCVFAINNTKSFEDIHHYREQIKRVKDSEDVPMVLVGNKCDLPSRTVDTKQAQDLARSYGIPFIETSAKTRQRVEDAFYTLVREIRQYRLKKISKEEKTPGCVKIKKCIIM

[4] = SPR Single Cycle Kinetics, 1:1 binding model

SMILES | HRAS/KRAS (ratio of KD value for HRAS to KD value for KRAS) [1] | NRAS/KRAS (ratio of KD value for NRAS to KD value for KRAS) [2] | Kd [3, 4] [nM] | Kd ([3]; SPR, Single Cycle Kinetics) [nM] | also measured
CCCN1C(=O)CN(C)C(=O)[C@@H]2CCN2C(=O)[C@H]([C@@H](C)CC)NC(=O)[C@H](CC(C)C)N(C)C(=O)C[C@@H](C(=O)N2CCOCC2)N(C)C(=O)[C@H](C2CCCC2)N(C)C(=O)C2(CCCC2)NC(=O)[C@@H]2CCCCN2C(=O)[C@H](CCc2ccc(C(F)(F)F)c(Cl)c2)NC(=O)CN(C)C(=O)[C@@H]1Cc1ccc(C(F)(F)F)cc1 [PP0311] ([NMeL]I[Aze][Sar][NPrPhe(4-CF3)][Sar][hPhe(3-Cl-4-CF3)][Pip][Ac5c][NMeGly(cPent)][NMeD]-Morpholide; lactam N-11) | B (a compound having 3 or more and less than 10 is denoted as B) | B (a compound having 3 or more and less than 10 is denoted as B) | 3.3 | – | –
CCO[C@@H]1C[C@H]2C(=O)NC3(CCC3)C(=O)N(C)[C@@H](C3CCCC3)C(=O)N(C)[C@H](C(=O)N3CCOCC3)CC(=O)N(C)[C@@H](CC(C)C)C(=O)N[C@@H]([C@@H](C)CC)C(=O)N(C)CC(=O)N(C)[C@H]3C/C=C\CCN(C3=O)[C@@H](Cc3ccc(C(F)(F)F)cc3)C(=O)N(C)CC(=O)N[C@@H](CCc3ccc(C(F)(F)F)c(Cl)c3)C(=O)N2C1 [PP0825, (2S,8S,12R,14S,20S,23S,27S,30S,36S,38Z)-8-[2-[3-chloro-4-(trifluoromethyl)phenyl]ethyl]-20-cyclopentyl-12-ethoxy-27-isobutyl-4,19,22,26,32,35-hexamethyl-30-[(1S)-1-methylpropyl]-23-(morpholine-4-carbonyl)-2-[[4-(trifluoromethyl)phenyl]methyl]spiro[1,4,7,10,16,19,22,26,29,32,35-undecazatricyclo[34.5.1.0^10,14]dotetracont-38-ene-17,1′-cyclobutane]-3,6,9,15,18,21,25,28,31,34,42-undecone] | A (a compound having 10 or more and less than 20 is denoted as A) | A (a compound having 10 or more and less than 20 is denoted as A) | – | 0.23 | –
CCC[C@H]1C(=O)N[C@@H](C2CCCC2)C(=O)N(C)CC(=O)N(C)[C@H]2C/C=C\CCN(C2=O)[C@@H](Cc2ccc(C(F)(F)F)cc2)C(=O)N(C)CC(=O)N[C@@H](CCc2ccc(C(F)(F)F)c(Cl)c2)C(=O)N2CC3(CC3)C[C@H]2C(=O)NC2(CC(C)(C)C2)C(=O)N(C)[C@@H](C2CCCC2)C(=O)N(C)[C@H](C(=O)N(C)C)CC(=O)N1C [PP2986] | A (a compound having 10 or more and less than 20 is denoted as A) | AA (a compound having 20 or more is denoted as AA) | – | 0.34 | –
CCCN1C(=O)[C@@H]2CCN2C(=O)CN(C)C(=O)[C@H]([C@@H](C)CC)NC(=O)[C@H](CC(C)C)N(C)C(=O)C[C@@H](C(=O)N2CCOCC2)N(C)C(=O)[C@H](C2CCCC2)N(C)C(=O)[C@](C)(CC2CCCCC2)NC(=O)[C@@H]2CCCN2C(=O)[C@H](CCc2cc(F)c(C(F)(F)F)c(F)c2)NC(=O)CN(C)C(=O)[C@@H]1Cc1ccc(C(F)(F)F)cc1 [PP0796] ([NMeL]I[Sar][Aze][NPrPhe(4-CF3)][Sar][hPhe(3,5-F2-4-CF3)]P[αMeCha][NMeGly(cPent)][NMeD]-Morpholide; lactam N-11) | – | – | 7.5 | – | HRAS/KRAS (ratio of KD value with respect to HRAS to KD value with respect to KRAS) [1]: B (a compound having 3 or more and less than 10 is denoted as B); NRAS/KRAS (ratio of KD value with respect to NRAS to KD value with respect to KRAS) [2]: C (A compound having a KD ratio of 0.1 or more and less than 3 is denoted as C)
CCO[C@@H]1C[C@H]2C(=O)NC3(CC(C)(C)C3)C(=O)N(C)[C@@H](C(CC)CC)C(=O)N(C)C(C(C)C)CC(=O)N(C)[C@@H](CC3CC3)C(=O)N[C@@H]([C@@H](C)CC)C(=O)N(C)CC(=O)N(C)[C@H]3C/C=C\CCN(C3=O)[C@@H](Cc3ccc(C(F)(F)F)cc3)C(=O)N(C)CC(=O)N[C@@H](CCc3cc(F)c(C(F)(F)F)c(F)c3)C(=O)N2C1 (stereo partly drawn) [PP1593] | – | – | – | – | HRAS/KRAS (ratio of KD value for HRAS to KD value for KRAS) ([1]; KD ratio class): A (a compound having 10 or more and less than 20 is denoted as A); NRAS/KRAS (ratio of KD value for NRAS to KD value for KRAS) ([2]; KD ratio class): A (a compound having 10 or more and less than 20 is denoted as A); Kd ([3]; SPR, Single Cycle Kinetics, 1:1 binding model): 4.3 nM
CCCN1C(=O)CN(C)C(=O)CN(CC)C(=O)[C@H]([C@@H](C)CC)NC(=O)[C@H](CC(C)C)N(C)C(=O)C[C@@H](C(=O)N2CCOCC2)N(C)C(=O)[C@H](C2CCCC2)N(C)C(=O)C2(CCCC2)NC(=O)[C@@H]2CCN2C(=O)[C@H](CCc2ccc(C(F)(F)F)c(Cl)c2)NC(=O)CN(C)C(=O)[C@@H]1Cc1ccc(C(F)(F)F)cc1 [PP0294] ([NMeL]I[NEtG][Sar][NPrPhe(4-CF3)][Sar][hPhe(3-Cl-4-CF3)][Aze][Ac5c][NMeGly(cPent)][NMeD]-Morpholide; lactam N-11) | C (A compound having a KD ratio of 0.1 or more and less than 3 is denoted as C) | B (a compound having 3 or more and less than 10 is denoted as B) | 1.7 | – | –
CCCOC[C@H]1C(=O)N[C@@H]([C@@H](C)CC)C(=O)N2CCC[C@H]2C(=O)N(C)[C@H]2C/C=C\CCN(C2=O)[C@@H](Cc2ccc(C)cc2)C(=O)N(C)CC(=O)N[C@@H](CCc2ccc(C(F)(F)F)c(OC)c2)C(=O)N2C[C@H](OCC)C[C@H]2C(=O)N(C)C2(CCC2)C(=O)N(C)[C@@H](C(CC)CC)C(=O)N(C)[C@H](C(=O)N(C)C)CC(=O)N1C [PP2331] | A (a compound having 10 or more and less than 20 is denoted as A) | AA (a compound having 20 or more is denoted as AA) | – | 0.36 | –
CC[C@H](C)[C@@H]1NC(=O)[C@H](CC(C)C)N(C)C(=O)C[C@@H](C(=O)N2CCOCC2)N(C)C(=O)[C@H](C2CCCC2)N(C)C(=O)C2(CCCC2)NC(=O)[C@@H]2CCCN2C(=O)[C@H](CCc2ccc(C(F)(F)F)c(Cl)c2)NC(=O)CN(C)C(=O)[C@H](Cc2ccccc2)N(C)C(=O)[C@@H]2CCN2C(=O)[C@H](C)N(C)C1=O [PP0011] ([NMeL]I[NMeA][Aze][NMeF][Sar][hPhe(3-Cl-4-CF3)]P[Ac5c][NMeGly(cPent)][NMeD]-Morpholide; lactam N-11) | C (A compound having a KD ratio of 0.1 or more and less than 3 is denoted as C) | C (A compound having a KD ratio of 0.1 or more and less than 3 is denoted as C) | 0.3 | – | –
CC[C@H](C)[C@@H]1NC(=O)[C@H](CC(C)C)N(C)C(=O)C[C@@H](C(=O)N2CCOCC2)N(C)C(=O)[C@H](C2CCCC2)N(C)C(=O)C2(CCCC2)NC(=O)[C@@H]2CCCN2C(=O)[C@H](CCc2ccc(C(F)(F)F)c(Cl)c2)NC(=O)CN(C)C(=O)[C@H](Cc2ccc(Cl)cc2)N2C/C=C\CC[C@@H](C2=O)N(C)C(=O)CN(C)C1=O [PP0608] | – | – | 1.7 | – | HRAS/KRAS (ratio of KD value with respect to HRAS to KD value with respect to KRAS) [1]: B (a compound having 3 or more and less than 10 is denoted as B); NRAS/KRAS (ratio of KD value with respect to NRAS to KD value with respect to KRAS) [2]: C (A compound having a KD ratio of 0.1 or more and less than 3 is denoted as C)
CC[C@H](C)[C@@H]1NC(=O)[C@H](CC(C)C)N(C)C(=O)C[C@@H](C(=O)N2CCOCC2)N(C)C(=O)[C@H](C2CCCC2)N(C)C(=O)C2(CCCC2)NC(=O)[C@@H]2CCCN2C(=O)[C@H](CCc2ccc(C(F)(F)F)c(Cl)c2)NC(=O)CN(C)C(=O)[C@H](Cc2ccc(C)cc2)N(CC(C)C)C(=O)[C@@H]2CCN2C(=O)[C@H](C)N(C)C1=O [PP0056] ([NMeL]I[NMeA][Aze][X18][Sar][hPhe(3-Cl-4-CF3)]P[Ac5c][NMeGly(cPent)][NMeD]-Morpholide; lactam N-11) | B (a compound having 3 or more and less than 10 is denoted as B) | C (A compound having a KD ratio of 0.1 or more and less than 3 is denoted as C) | 2.9 | – | –
CCOC[C@H]1C(=O)N[C@@H]([C@@H](C)CC)C(=O)N(C)CC(=O)N(C)[C@H]2C/C=C\CCN(C2=O)[C@@H](CC2CCC(F)(F)CC2)C(=O)N(C)CC(=O)N[C@@H](CCc2ccc(C(F)(F)F)c(OC)c2)C(=O)N2C[C@H](OCC)C[C@H]2C(=O)N(C)C2(CCC2)C(=O)N(C)[C@@H](C(CC)CC)C(=O)N(C)[C@H](C(=O)N(C)C)CC(=O)N1C [PP2347] | A (a compound having 10 or more and less than 20 is denoted as A) | A (a compound having 10 or more and less than 20 is denoted as A) | – | 1.6 | –
CCCN1C(=O)CN(C)C(=O)CN(C)C(=O)[C@H]([C@@H](C)CC)NC(=O)[C@H](CC(F)(F)F)N(C)C(=O)C[C@@H](C(=O)N2CCOCC2)N(C)C(=O)[C@H](C2CCCC2)N(C)C(=O)C2(CCCC2)NC(=O)[C@@H]2CCCN2C(=O)[C@H](CCc2ccc(C(F)(F)F)c(Cl)c2)NC(=O)CN(C)C(=O)[C@@H]1Cc1ccc(C(F)(F)F)cc1 [PP0187] ([NMeAbu(4,4,4-F3)]I[Sar][Sar][NPrPhe(4-CF3)][Sar][hPhe(3-Cl-4-CF3)]P[Ac5c][NMeGly(cPent)][NMeD]-Morpholide; lactam N-11) | C (A compound having a KD ratio of 0.1 or more and less than 3 is denoted as C) | B (a compound having 3 or more and less than 10 is denoted as B) | 0.19 | – | –
